# Laboratory results as given in paper PMC6383986, “Fragment-Based Covalent Ligand Screening Enables Rapid Discovery of Inhibitors for the RBR E3 Ubiquitin Ligase HOIP” (Journal of the American Chemical Society, 2019).
# Entries after “also recorded” stand apart in the source; their conditions may differ.
# Target: T1, HOIP RBR domain (Homo sapiens, UniProt Q96EP0)
# T1 construct: made in house; host or cells: E. coli BL21-GOLD(DE3)
# T1 sequence (Q96EP0 697-1072): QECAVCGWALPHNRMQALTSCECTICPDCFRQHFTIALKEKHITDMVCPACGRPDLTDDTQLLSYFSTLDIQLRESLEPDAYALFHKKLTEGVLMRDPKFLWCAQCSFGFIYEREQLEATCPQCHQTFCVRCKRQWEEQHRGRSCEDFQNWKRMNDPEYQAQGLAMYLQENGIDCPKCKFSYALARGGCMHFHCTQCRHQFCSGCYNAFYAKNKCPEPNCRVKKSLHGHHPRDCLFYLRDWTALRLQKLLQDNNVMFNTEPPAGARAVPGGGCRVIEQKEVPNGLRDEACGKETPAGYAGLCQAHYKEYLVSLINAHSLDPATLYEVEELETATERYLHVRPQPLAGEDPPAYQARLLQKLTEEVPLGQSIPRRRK
# Test: Fluorescence-based ubiquitin thioester transfer assay
# Type: biochemical
# Details: HOIP RBR prelabeled with compound; E2 UbcH7
# Description: overnight, and further purified by size-exclusion chromatography (Superdex 75/ÄKTA purifier).
# The appropriate fractions were concentrated to 4 mL in a 3.5 kDa MWCO protein concentrator (Merck). The protein concentration was measured on a Nanodrop UV spectrophotometer (absorbance at 650 nm) as 19 µM and corroborated by SDS PAGE. Labelling was confirmed by protein LC-MS (Supplementary Figure S10). The labelled protein was aliquoted, flash frozen and […]
# Supplementary Figure S10. TIC traces of the deconvoluted protein masses of the M1C ubiquitin mutant (M1C Ub) and the AlexaFluor647 labelled M1C ubiquitin mutant (M1C UbA647).
# Formation of the HOIP RBR-(5) conjugate
# The HOIP RBR domain (7.5 µM) was incubated (Eppendorf Thermomixer) with inhibitor (5) (750 µM, 1.5% DMSO) in 50 mM HEPES, 150 mM NaCl, pH 7.5 buffer at 600 rpm, 23 °C for 18 h. […] The protein concentration was measured on Nanodrop UV spectrophotometer (absorbance at 280 nm), and the protein was flash frozen in liquid nitrogen […]
# (10 min), HOIP RBR or HOIP-RBR-(5) conjugate (5 min), C-terminally His6-tagged ubiquitin (10 min). […] The aliquots were analyzed by SDS PAGE and the gels scanned at 700 nm (LICOR Odyssey CLx) using auto-adjustment of the fluorescence intensity, then stained with Coomassie (Figure 4B and Supplementary Figure S11). […]
smiles,measurement,value
COC(=O)/C=C/CNC(=O)c1cc2c([nH]c1=O)CCC2 [Compound 5],formation of E3~Ub thioester / loading of ubiquitin onto HOIP RBR,inhibits formation of the E3∼Ub thioester intermediate; also recorded: effectively prevented the loading of ubiquitin onto the E3
